Laboratory results reported in US20260234163A1, “NOVEL COMPOUNDS AND USES THEREOF” (ACELINK THERAPEUTICS, INC., priority 2023, published 2026).
Like-named read-outs stand apart in the source and are kept apart here.

What was measured:
Keap1-Nrf2 = biological target: T1, Keap1-Nrf2 (Homo sapiens, UniProt Q14145); test: Keap1-Nrf2 Binding Inhibitory Activity Assay (fluorescence polarization, Keap1_FL + FITC-Nrf2 peptide); conditions: Keap1-FL, 60 min room temperature
T1 construct: purchased Sino Biological 11981-H20B
Procedure: Example 2.1 Keap1-Nrf2 Binding Inhibitory Activity Assay
• PerkinElmer EnVision 2105 Multilabel Reader • PerkinElmer FITC FP dual emission Label 2100-8060 • LABCYTE Echo 650 • Corning 384-well microplate #4514 • Keap1_FL, Sino Biological, catalog 11981-H20B • FITC-Nrf2 peptide, GL Biochem, Lot No: p210427-XQ892761
• a) Reference titration • 1. Keap1-Nrf2 Assay Buffer was prepared: 10 mM Tris-HCl pH 7.4, 150 mM NaCl, 50 mM EDTA, 0.05% Tween20, 0.1 mg/ml BSA (freshly add before use). • 2. 2.04× Tracer working solution was prepared: 2.04 nM FITC-Nrf2 peptide in Assay Buffer from 1 μM DMSO stock. • 3. 2× Protein working solution was prepared: 25 nM Keap1-FL in Assay Buffer. • 4. 100× compound working solutions with DMSO were prepared. Starting from 100 μM, serial 3-fold dilutions (10 points) were made by the Echo on the 384-well LDV microplate, then 200 nL of compounds, in duplicated wells, were transferred to a Corning 4514 plate. • 5. 9.8 μL per well of the Tracer working solution was added into the Corning 4514 plate. • 6. 10 μL per well of the Protein working solution was added into the Corning 4514 plate, except for the first two columns where Dilution Buffer were added to serve as “positive control”. • 7. The plate was incubated at room temperature for 60 min. • b) Read data on an EnVision with the following setting: Excitation Light (%): 84; Measurement Height: 9.4; G-Factor: 1; Detector Gain 1:220; Detector Gain 2: 220; Flash Number: 50.
All the Test Compounds were considered as having Keap1-Nrf2 binding inhibitory activity.

Nrf2 = Nrf2 Cellular Assay (pGL4.37[luc2P/ARE/Hygro] luciferase reporter in HepG2 cells); format: cell-based; conditions: ARE luciferase, 6 hours compound treatment
Procedure: Example 2.2 Nrf2 Cellular Assay
• 1. pGL4.37[luc2P/ARE/Hygro] vector was diluted to 25 ng/μL in Opti-MEM. • 2. Lipofectamine 3000 was added to a 2:1 lipid:DNA. The mixture was mixed by pipetting and incubate at room temperature for 15 minutes. • 3. HepG2 cells were cultured in complete medium (DMEM+10% FBS). • 4. Trypsin was added to the cells, which were filtered via a cell strainer to remove cell cluster, the cells were then quantified and diluted to 2×10^5 cells/ml in complete medium. • 5. The cells and plasmid were mixed, seeded to 384-well plate 50 μL per well (50 ng DNA/well) and incubated for 24 hours in a 37° C., 5% CO2 incubator.
• 1. Medium was removed from cells and replaced with 36 μL of DMEM+10% FBS per well. • 2. Incubated overnight in a 37° C., 5% CO2 incubator.
• 1. Test compound was serially diluted tin DMSO, and further diluted with DMEM (contains 10% FBS) to 10× final concentration. • 2. 4 μL of the 10× compound was added to each well, the plate was shaken for 10 sec on a plate shaker and incubated for 6 hours in a 37° C., 5% CO2 incubator.
• 1. Plates were removed from the 37° C., 5% CO2 incubator and allowed to cool to room temperature for approximately 15 minutes. • 2. 40 μL of the Glo Luciferase Assay System detection reagents were added, and the plate was shaken for 3 min and luminescence was measured.

Structure (SMILES) | IC50 (Keap1-Nrf2) | EC50 (Nrf2; Homo sapiens, HepG2, 6 h) | other results
Cc1c2ccc3c1nnn3CCCCOC1CCN(CC1)C(=O)N1CCc3ccc(cc3C1)C2CC(=O)O (centres unmarked) [Compound 10, 2-(1^4-methyl-4-oxo-3^1,3^2,3^3,3^4-tetrahydro-1^1H-6-oxa-3(7,2)-isoquinolina-1(5,1)-benzo[d][1,2,3]triazola-5(1,4)-piperidinacyclodecaphane-2-yl)acetic acid] | ≤ 100 nM | ≤ 10 µM | –
O=C(O)CC1c2ccc3c(c2)CN(CC3)C(=O)N2CCC(CCCCCn3nnc4cc1cnc43)CC2 (single isomer, unassigned) [Compound 53] | ≤ 100 nM | 10 to 30 µM | –
Cc1c2ccc3c1nnn3CCCCCN1CCC(CC1)C(=O)N1CCc3ccc(cc3C1)C2CC(=O)O (centres unmarked) [Compound 2, 2-(carboxymethyl)-1^4-methyl-4-oxo-3^1,3^2,3^3,3^4-tetrahydro-1^1H-3(7,2)-isoquinolina-1(5,1)-benzo[d][1,2,3]triazola-5(4,1)-piperidin-1-iumacyclodecaphan-5^1-ium chloride] | 1000 to 10000 nM | > 30 µM | –
Cc1c2ccc3c1nnn3CCCCCC1CCC(CC1)C(=O)N(C)Cc1cccc(c1)C2CC(=O)O (centres unmarked) [Compound 37] | 100 to 1000 nM | ≤ 10 µM | –
CCOC(=O)CC1c2ccc3c(c2)CN(CC3)C(=O)C2CCN(CCCCCn3nnc4c(C)c1ccc43)CC2 (centres unmarked) | – | – | ring closure, isolated yield (from CCOC(=O)CC(c1ccc2c(c1)CNCC2)c1ccc2c(nnn2CCCCCN2CCC(C(=O)O)CC2)c1C, amide bond, 21-membered ring, HATU/DIEA, DMF, 96.0 mM, 0.0 °C): 79.5%
O=C(CC1c2ccc3c(c2)CN(CC3)C(=O)N2CCC(C=CCCCn3nnc4c(Cl)c1ccc43)CC2)OCc1ccccc1 (centres unmarked) | – | – | ring closure, isolated yield (from C=CCCCn1nnc2c(Cl)c(C(CC(=O)OCc3ccccc3)c3ccc4c(c3)CN(C(=O)N3CCC(C=C)CC3)CC4)ccc21, rcm bond, 21-membered ring, Grubbs II, DCM, 53.3 mM, 19.0 h): 13.3%
Cc1c2ccc3c1nnn3CCOCCN1CCN(CC1)C(=O)c1ccc3ccc(cc3c1)C2CC(=O)OC(C)(C)C (centres unmarked) | – | – | ring closure, isolated yield (from Cc1c(C(CC(=O)OC(C)(C)C)c2ccc3ccc(C(=O)O)cc3c2)ccc2c1nnn2CCOCCN1CCNCC1, amide bond, 21-membered ring, HATU/DIEA, DMF, 72.0 mM, 25.0 °C, 19.0 h): 19.5%
CCOC(=O)CC1c2ccc3c(c2)CN(CC3)S(=O)(=O)c2ccc(cc2)OCCOCCn2nnc3c(C)c1ccc32 (centres unmarked) | – | – | ring closure, isolated yield (from CCOC(=O)CC(c1ccc2c(c1)CN(S(=O)(=O)c1ccc(O)cc1)CC2)c1ccc2c(nnn2CCOCCO)c1C, ether bond, 22-membered ring, DEAD/PPh3, DCM/THF, 28.8 mM, 20.0 °C, 4.0 h): 73.6%
CCOC(=O)CC1c2ccc3c(c2)CN(CC3)S(=O)(=O)c2ccc(cc2)OCC=CCn2nnc3c(C)c1ccc32 (centres unmarked) | – | – | ring closure, isolated yield (from C=CCOc1ccc(S(=O)(=O)N2CCc3ccc(C(CC(=O)OCC)c4ccc5c(nnn5C/C=C/C)c4C)cc3C2)cc1, rcm bond, 21-membered ring, Grubbs II, DCM, 40.0 mM, 25.0 °C, 19.0 h): 12.9%
Cc1c2ccc3c1nnn3CCCCCC1CCN(CC1)C(=O)N1CCc3ccc(cc3C1)C2CC(=O)O (centres unmarked) [Compound 14, 2-(1^4-methyl-4-oxo-3^1,3^2,3^3,3^4-tetrahydro-1^1H-3(7,2)-isoquinolina-1(5,1)-benzo[d][1,2,3]triazola-5(1,4)-piperidinacyclodecaphane-2-yl)acetic acid] | ≤ 100 nM | ≤ 10 µM | –
CCOC(=O)CC1c2cccc(c2)CN(C)C(=O)c2ccc(cc2)COCCCn2nnc3c(C)c1ccc32 (centres unmarked) | – | – | ring closure, isolated yield (from CCOC(=O)CC(c1cccc(CNC)c1)c1ccc2c(nnn2CCCOCc2ccc(C(=O)O)cc2)c1C, amide bond, 21-membered ring, HATU/DIEA, DMF, 73.0 mM, 25.0 °C): 58.2%
Cc1c2ccc3c1nnn3CCCOCC1CCN(CC1)C(=O)N1CCc3ccc(cc3C1)C2CC(=O)O (centres unmarked) [Compound 12, 2-(1^4-methyl-4-oxo-3^1,3^2,3^3,3^4-tetrahydro-1^1H-7-oxa-3(7,2)-isoquinolina-1(5,1)-benzo[d][1,2,3]triazola-5(1,4)-piperidinacyclodecaphane-2-yl)acetic acid] | ≤ 100 nM | ≤ 10 µM | –
COC(=O)CC1c2ccc3c(nnn3CCOCCOC3CCN(CC3)C(=O)c3ccc4c(c3)CN1CC4)c2C (centres unmarked) | – | – | ring closure, isolated yield (from COC(=O)CC(c1ccc2c(nnn2CCOCCOC2CCNCC2)c1C)N1CCc2ccc(C(=O)O)cc2C1, amide bond, 22-membered ring, HATU/DIEA, DMF, 35.4 mM, 20.0 °C, 2.0 h): 90.4%
Cc1c2ccc3c1nnn3CCOCCOc1ccc(cc1)S(=O)(=O)N1CCc3ccc(cc3C1)C2CC(=O)O (centres unmarked) [Compound 1, tert-butyl 2-(1^4-methyl-4,4-dioxido-3^1,3^2,3^3,3^4-tetrahydro-1^1H-6,9-dioxa-4-thia-3(7,2)-isoquinolina-1(5,1)-benzo[d][1,2,3]triazola-5(1,4)-benzenacycloundecaphane-2-yl)acetic acid] | 100 to 1000 nM | > 30 µM | –
Cc1cc2cc3c1CCN(C3)C(=O)c1ccc(cc1)COCCCn1nnc3c(C)c(ccc31)C2CC(=O)O (centres unmarked) [Compound 4, 2-(1^4,3^5-dimethyl-4-oxo-3^1,3^2,3^3,3^4-tetrahydro-1^1H-7-oxa-3(7,2)-isoquinolina-1(5,1)-benzo[d][1,2,3]triazola-5(1,4)-benzenacyclodecaphane-2-yl)acetic acid] | ≤ 100 nM | ≤ 10 µM | –
Cc1c2ccc3c1nnn3C/C=C\COC1CCN(CC1)C(=O)N1CCc3ccc(cc3C1)C2CC(=O)O (centres unmarked) [Compound 11, (Z)-2-(1^4-methyl-4-oxo-3^1,3^2,3^3,3^4-tetrahydro-1^1H-6-oxa-3(7,2)-isoquinolina-1(5,1)-benzo[d][1,2,3]triazola-5(1,4)-piperidinacyclodecaphan-8-en-2-yl)acetic acid] | ≤ 100 nM | ≤ 10 µM | –
O=C(O)CC1c2ccc3c(c2)CN(CC3)C(=O)N2CCC(CCCCCn3nnc4cc1cnc43)CC2 (single isomer, unassigned) [Compound 54] | ≤ 100 nM | – | EC50 (Nrf2): ≤ 10 µM
Cc1c2ccc3c1nnn3CCOCCN1CCN(CC1)C(=O)c1ccc3ccc(cc3c1)C2CC(=O)O (centres unmarked) [Compound 8, 2-(1^4-methyl-4-oxo-1^1H-8-oxa-1(5,1)-benzo[d][1,2,3]triazola-5(1,4)-piperazina-3(2,7)-naphthalenacyclodecaphane-2-yl)acetic acid] | 1000 to 10000 nM | > 30 µM | –
Cc1c2ccc3c1nnn3CCCCCCCCN(C)C(=O)N1CCc3ccc(cc3C1)C2CC(=O)O (centres unmarked) [Compound 40] | ≤ 100 nM | 10 to 30 µM | –
O=C(O)CC1c2ccc3c(c2)CN(CC3)C(=O)N2CCC(CCCCCn3nnc4c(Cl)c1ccc43)CC2 (centres unmarked) [Compound 30, 2-(1^4-chloro-4-oxo-3^1,3^2,3^3,3^4-tetrahydro-1^1H-3(7,2)-isoquinolina-1(5,1)-benzo[d][1,2,3]triazola-5(1,4)-piperidinacyclodecaphane-2-yl)acetic acid] | ≤ 100 nM | ≤ 10 µM | –
Cc1c2ccc3c1nnn3CCCCCC1CCC(CC1)C(=O)N1CCc3ccc(cc3C1)C2CC(=O)O (centres unmarked) [Compound 35] | ≤ 100 nM | ≤ 10 µM | –
Cc1c2ccc3c1nnn3CCCCCN1CCN(CC1)C(=O)N1CCc3ccc(cc3C1)C2CC(=O)O (centres unmarked) [Compound 5, 2-(carboxymethyl)-1^4-methyl-4-oxo-3^1,3^2,3^3,3^4-tetrahydro-1^1H-3(7,2)-isoquinolina-1(5,1)-benzo[d][1,2,3]triazola-5(4,1)-piperazin-1-iumacyclodecaphan-5^1-ium chloride] | 100 to 1000 nM | > 30 µM | –
O=C(O)CC1c2ccc3c(c2)CN(CC3)C(=O)C2CCC(CCCCn3nnc4cc1cnc43)CC2 (centres unmarked) [Compound 56, 2-(4-oxo-31,32,33,34-tetrahydro-13H-3(7,2)-isoquinolina-1(6,3)-[1,2,3]triazolo[4,5-b]pyridina-5(1,4)-cyclohexanacyclononaphane-2-yl)acetic acid] | ≤ 100 nM | 10 to 30 µM | –
Cc1ccc2cc1CN(C)C(=O)c1ccc(cc1)COCCCn1nnc3c(C)c(ccc31)C2CC(=O)O (single isomer, unassigned) [Compound 17, 2-(1^4,3^4,5-trimethyl-6-oxo-1^1H-9-oxa-5-aza-1(5,1)-benzo[d][1,2,3]triazola-3(1,3), 7(1,4)-dibenzenacyclododecaphane-2-yl)acetic acid] | 1000 to 10000 nM | > 30 µM | –
